Experimental data as given in patent US10881110B2, “Herbicidal compositions comprising isoxazolo[5,4-b]pyridines” (BASF SE, priority 2014, dated 2021).

Columns and labels:
Assay in all cases: greenhouse post-emergence herbicidal test
GALAP = type: in vivo, Galium aparine; set-up: key to herbicidal activity against GALAP found: rating on a scale from 0 to 100; conditions: post emergence, 6 days after treatment, g/ha a.i.: I.1 62.5
In short: (§1)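 Post-emergence greenhouse test: plants in loamy sand, sprayed at 1–15 cm height with aqueous spray liquor from 10% emulsion concentrates, kept at 10-25 °C or 20-35 °C by species. Damage scored 0–100 (100 = complete destruction), usually 20 days after treatment. Expected additive effect E from Colby: E=X+Y−(X·Y/100).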

SASKR = type: in vivo, Salsola kali; set-up: key: scale 0 to 100; conditions: 6 days after treatment
Procedure: (§2) The culture containers used were plastic pots containing medium loamy sand with approximately 4.6% of humus and 69.9% sand as substrate. The seeds of the test plants were sown separately for each species.
(§3) For the post-emergence treatment, the test plants were grown to a plant height of from 1 to 15 cm, depending on the plant habit, and only then treated with the active compounds which had been suspended or emulsified in water. To this end, the test plants were either sown directly, and grown in the same containers, or they were first grown separately as seedlings and transplanted into the test containers a few days prior to treatment.
(§4) Depending on the species, the plants were kept at 10-25° C. and 20-35° C., respectively.
(§5) The test period extended over 1 to 3 weeks. During this time, the plants were tended and their response to the individual treatments was evaluated 20 days after treatment except mentioned otherwise.
(§6) Evaluation was carried out using a scale from 0 to 100. 100 means no emergence of the plants, or complete destruction of at least the above-ground parts, and 0 means no damage or normal course of growth.
(§7) The respective stated components A and B, and, if appropriate, C, were formulated as a 10% by weight strength emulsion concentrate and, with addition of the amount of solvent system, introduced into the spray liquor used for applying the active compound. In the examples, the solvent used was water.
(§8) In the examples below, using the method of S. R. Colby (1967) “Calculating synergistic and antagonistic responses of herbicide combinations”, Weeds 15, p. 22 ff., the value E, which is expected if the activity of the individual active compounds is only additive, was calculated. E=X+Y−(X·Y/100)

POLCO = type: in vivo, Polygonum convolvulus; set-up: key to herbicidal activity against POLCO found: rating on a scale from 0 to 100; conditions: post emergence
In short: as §1

KCHSC = type: in vivo, Kochia scoparia; set-up: key to herbicidal activity against KCHSC found: rating on a scale from 0 to 100; conditions: post emergence, 6 days after treatment
In short: as §1

IPOHE = type: in vivo, Ipomoea hederacea; set-up: key to herbicidal activity against IPOHE found: rating on a scale from 0 to 100; conditions: post emergence, 6 days after treatment
In short: as §1

CONAR = type: in vivo, Convolvulus arvensis; set-up: key: rating on a scale from 0 to 100
In short: (§9)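 Herbicidal effect is rated visually from 0, no damage, to 100, complete kill, twenty days after treating plants of 1–15 cm height. Substrate is medium loamy sand with about 4.6% humus; holding temperature depends on species, either 10-25° C or 20-35° C.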

VIOAR = type: in vivo, Viola arvensis; set-up: key to herbicidal activity against VIOAR found / herbicidal activity against VIOLA found: rating on a scale from 0 to 100; conditions: post emergence, 6 days after treatment
In short: as §1

SORVU = type: in vivo; conditions: 6 days after treatment
POLPE = type: in vivo, Persicaria maculosa; set-up: key: scale 0 to 100
Procedure: as §2, §3, §4, §5, §6, §7, §8

POLAV = type: in vivo, Polygonum aviculare; set-up: key: rating on a scale from 0 to 100; conditions: 6 days after treatment
Procedure: as §2, §3, §4, §5, §6, §7, §8

STEME = type: in vivo, Stellaria media; set-up: key: scale 0 to 100; conditions: 6 days after treatment, g/ha a.i.: I.1 31.25, B.96 35, mixture 31.25+35
In short: as §9

ABUTH = type: in vivo, Abutilon theophrast; set-up: key to herbicidal activity against ABUTH found: rating on a scale from 0 to 100; conditions: post emergence
In short: as §9

SEBEX = type: in vivo, Sesbania exaltata; conditions: application rate a.i.: I.1 31.25 g/ha, B.139 (pyroxasulfone) 25 g/ha, alone or as mixture (composition 1.139)
Procedure: as §2, §3, §4, §5, §6, §7, §8

AMBEL = type: in vivo, Ambrosia artemisiifolia; set-up: key: rating on a scale from 0 to 100
In short: as §9

GERPU = type: in vivo, Geranium pusillum; conditions: application rate a.i.: I.1 31.25 g/ha, alone or as mixture (composition 1.139)
Procedure: as §2, §3, §4, §5, §6, §7, §8

LAMAM = type: in vivo, Lamium amplexicaule; set-up: key: scale 0 to 100; conditions: application rate a.i.: I.1 31.25 g/ha, B.139 (pyroxasulfone) 25 g/ha, alone or as mixture (composition 1.139)
Procedure: as §2, §3, §4, §5, §6, §7, §8

MATCH = type: in vivo, Matricaria recutita; conditions: post emergence
In short: as §9

AMARE = type: in vivo, Amaranthus retroflexus; conditions: a.i. g/ha: I.1 20.8, B.192 62.5, 20 days after treatment
Procedure: as §2, §3, §4, §5, §6, §7, §8

SETVI = type: in vivo, Setaria viridis; conditions: a.i. g/ha: I.1 20.8, B.192 62.5, 20 days after treatment
Procedure: as §2, §3, §4, §5
Evaluation was carried out using a scale from 0 to 100. […]
In the examples below, using the method of S. R. Colby (1967) “Calculating synergistic and antagonistic responses of herbicide combinations”, Weeds 15, p. 22 ff., the value E, which is expected if the activity of the individual active compounds is only additive, was calculated. […]

CHEAL = type: in vivo, Chenopodium album; conditions: a.i. g/ha: I.1 20.8, B.192 62.5, 20 days after treatment
In short: as §9

ERICA = type: in vivo, Conyza canadensis; conditions: post emergence; 6 days after treatment; g/ha a.i.: I.1 125; naptalam 50; mixture 125+50
In short: as §9

[1] = g/ha a.i.: I.1 62.5, B.96 140, mixture 62.5+140
[2] = 6 days after treatment, g/ha a.i.: I.1 31.25, B.96 70, mixture 31.25+70
[3] = 6 days after treatment, g/ha a.i.: I.1 62.5, B.96 140, mixture 62.5+140
[4] = g/ha a.i.: I.1 31.25, B.96 35, mixture 31.25+35
[5] = g/ha a.i.: I.1 31.25, B.96 70, mixture 31.25+70
[6] = g/ha a.i.: I.1 31.25, B.96 140, mixture 31.25+140
[7] = g/ha a.i.: I.1 62.5, B.96 35, mixture 62.5+35
[8] = g/ha a.i.: I.1 62.5, B.96 70, mixture 62.5+70
[9] = 6 days after treatment, g/ha a.i.: I.1 31.25, B.96 35, mixture 31.25+35
[10] = application rate a.i.: I.1 31.25 g/ha, B.139 (pyroxasulfone) 12.5 g/ha, alone or as mixture (composition 1.139)
[11] = application rate a.i.: I.1 31.25 g/ha, B.139 (pyroxasulfone) 25 g/ha, alone or as mixture (composition 1.139)
[12] = a.i. g/ha: I.1 20.8, B.192 62.5, 20 days after treatment
[13] = g/ha a.i.: I.1 31.25, naptalam 200, mixture 31.25+200
[14] = g/ha a.i.: I.1 62.5, naptalam 50, mixture 62.5+50
[15] = g/ha a.i.: I.1 62.5, naptalam 200, mixture 62.5+200
[16] = 6 days after treatment, g/ha a.i.: I.1 31.25, naptalam 50, mixture 31.25+50
[17] = 6 days after treatment, g/ha a.i.: I.1 31.25, naptalam 100, mixture 31.25+100
[18] = 6 days after treatment, g/ha a.i.: I.1 62.5, naptalam 50, mixture 62.5+50
[19] = g/ha a.i.: I.1 62.5, naptalam 100, mixture 62.5+100

Structure (SMILES): CS(=O)(=O)c1ccc(C(=O)C2=C(Sc3ccccc3)C3CCC(C3)C2=O)c(Cl)c1 (stereo not shown) [B.96, benzobicyclon]
- herbicidal activity against GALAP found (GALAP; B.96 70, mixture 62.5+70): 75
- herbicidal activity against GALAP found (GALAP; B.96 140, mixture 62.5+140): 80
- herbicidal activity against SASKR found (SASKR; [1]): 65
- herbicidal activity against POLCO found (POLCO; [2]): 70
- herbicidal activity against POLCO found (POLCO; 6 days after treatment, g/ha a.i.: I.1 31.25, B.96 140, mixture 31.25+140): 80
- herbicidal activity against POLCO found (POLCO; 6 days after treatment, g/ha a.i.: I.1 62.5, B.96 70, mixture 62.5+70): 70
- herbicidal activity against POLCO found (POLCO; [3]): 80
- herbicidal activity against KCHSC found (KCHSC; [4]): 35
- herbicidal activity against KCHSC found (KCHSC; [5]): 40
- herbicidal activity against KCHSC found (KCHSC; [6]): 55
- herbicidal activity against KCHSC found (KCHSC; [7]): 35
- herbicidal activity against KCHSC found (KCHSC; [8]): 40
- herbicidal activity against IPOHE found (IPOHE; [4]): 70
- herbicidal activity against IPOHE found (IPOHE; [5]): 70
- herbicidal activity against IPOHE found (IPOHE; [6]): 70
- herbicidal activity against IPOHE found (IPOHE; [1]): 70
- herbicidal activity against CONAR found (CONAR; [3]): 75
- herbicidal activity against VIOAR found (VIOAR; [4]): 65
- herbicidal activity against VIOAR found (VIOAR; [5]): 65
- herbicidal activity against VIOAR found (VIOAR; [6]): 65
- herbicidal activity against VIOAR found (VIOAR; [7]): 65
- herbicidal activity against VIOAR found (VIOAR; [8]): 65
- herbicidal activity against VIOAR found (VIOAR; [1]): 65
- herbicidal activity against SORVU found (SORVU; [6]): 60
- herbicidal activity against POLPE found (POLPE; [9]): 85
- herbicidal activity against POLAV found (POLAV; [8]): 70
- herbicidal activity against POLAV found (POLAV; [1]): 70
- herbicidal activity against STEME found (STEME): 85
- herbicidal activity against ABUTH found (ABUTH; [9]): 80
- herbicidal activity against ABUTH found (ABUTH; [2]): 85

Structure (SMILES): Cn1nc(C(F)(F)F)c(CS(=O)(=O)C2=NOC(C)(C)C2)c1OC(F)F [B.139, pyroxasulfone]
- herbicidal activity against SEBEX, found (SEBEX): 35
- herbicidal activity against POLCO found (POLCO; [10]): 15
- herbicidal activity against AMBEL found (AMBEL; [10]): 10
- herbicidal activity against CONAR found (CONAR; [10]): 60
- herbicidal activity against CONAR found (CONAR; [11]): 60
- herbicidal activity against GERPU, found (GERPU; B.139 (pyroxasulfone) 12.5 g/ha): 0
- herbicidal activity against GERPU, found (GERPU; B.139 (pyroxasulfone) 25 g/ha): 25
- herbicidal activity against POLPE found (POLPE; [10]): 55
- herbicidal activity against ABUTH found (ABUTH; [11]): 60
- herbicidal activity against LAMAM, found (LAMAM): 45

Structure (SMILES): COC(=O)Nc1cccc(OC(=O)Nc2cccc(C)c2)c1 [B.192, phenmedipham]
- herbicidal activity against MATCH found (MATCH; [12]): 50%
- herbicidal activity against AMBEL found (AMBEL; [12]): 90%
- herbicidal activity against AMARE found (AMARE): 35%
- herbicidal activity against SETVI found (SETVI): 65%
- herbicidal activity against CHEAL found (CHEAL): 50%

Structure (SMILES): O=C(O)c1ccccc1C(=O)Nc1cccc2ccccc12 [naptalam]
- herbicidal activity against SASKR found (SASKR; [13]): 80
- herbicidal activity against SASKR found (SASKR; [14]): 70
- herbicidal activity against SASKR found (SASKR; [15]): 80
- herbicidal activity against MATCH found (MATCH; [16]): 30
- herbicidal activity against MATCH found (MATCH; [17]): 65
- herbicidal activity against MATCH found (MATCH; [18]): 30
- herbicidal activity against POLCO found (POLCO; [16]): 75
- herbicidal activity against POLCO found (POLCO; [18]): 75
- herbicidal activity against KCHSC found (KCHSC; g/ha a.i.: I.1 31.25, naptalam 100, mixture 31.25+100): 85
- herbicidal activity against KCHSC found (KCHSC; [13]): 85
- herbicidal activity against ERICA found (ERICA): 80
- herbicidal activity against CONAR found (CONAR; [16]): 80
- herbicidal activity against CONAR found (CONAR; [17]): 80
- herbicidal activity against CONAR found (CONAR; 6 days after treatment, g/ha a.i.: I.1 31.25, naptalam 200, mixture 31.25+200): 80
- herbicidal activity against CONAR found (CONAR; 6 days after treatment, g/ha a.i.: I.1 125, naptalam 100, mixture 125+100): 80
- herbicidal activity against VIOAR found (VIOAR; [13]): 70
- herbicidal activity against VIOAR found (VIOAR; [19]): 65
- herbicidal activity against VIOAR found (VIOAR; [15]): 70
- herbicidal activity against SORVU found (SORVU; [15]): 50
- herbicidal activity against POLAV found (POLAV; g/ha a.i.: I.1 31.25, naptalam 50, mixture 31.25+50): 70
- herbicidal activity against POLAV found (POLAV; [13]): 75
- herbicidal activity against POLAV found (POLAV; [14]): 70
- herbicidal activity against POLAV found (POLAV; [19]): 75
- herbicidal activity against POLAV found (POLAV; [15]): 75
- herbicidal activity against ABUTH found (ABUTH; [17]): 85
